Values after ≈ are worked out from the molar mass of the structure shown. Read-outs that look alike come from different tables or passages of the source.
Experiments:
[1] = tested on: Carbapenem-resistant Enterobacteriaceae (CRE, Klebsiella pneumoniae); assay: Test Example 2: antibacterial activity test (MIC); assay type: cell-based; details: ID-CAMHB, read-out: ID-CAMHB, MIC
Outline: (§1)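 MIC by CLSI broth microdilution: compounds serially 2-fold diluted in sterile saline, 32–0.031 μg/mL (11 points, duplicate wells), added to bacterial suspension at 2-8×10^5 CFU/mL, with drug-free growth controls.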

[2] = tested on: Control strain Escherichia coli ATCC 25922; assay: Test Example 2: antibacterial activity test (MIC); assay type: cell-based; details: ATCC25922, ID-CAMHB, ATCC 25922, read-out: ID-CAMHB, MIC
Outline: as §1

[3] = tested on: Carbapenem-resistant Acinetobacter baumannii (CRAB, Acinetobacter baumannii); assay: Test Example 2: antibacterial activity test (MIC); assay type: cell-based; details: ID-CAMHB, read-out: ID-CAMHB, MIC
Outline: as §1

[4] = tested on: Carbapenem-resistant Pseudomonas aeruginosa (CRPA, Pseudomonas aeruginosa); assay: Test Example 2: antibacterial activity test (MIC); assay type: cell-based; details: ID-CAMHB, read-out: ID-CAMHB, MIC
Outline: as §1

[5] = tested on: Control Strain Pseudomonas aeruginosa ATCC 27853; assay: Test Example 2: antibacterial activity test (MIC); assay type: cell-based; details: ATCC27853, ID-CAMHB, ATCC 27853, read-out: ID-CAMHB, MIC
Outline: as §1

[6] = Test Example 3: pharmacokinetic study in cynomolgus monkeys; assay type: in vivo; details: cynomolgus monkey, plasma, 10 mg/kg single intravenous infusion, individual animals
Protocol: An appropriate amount of a test compound was weighed precisely and added to a container, and 0.9% sodium chloride injection and 0.2 M NaOH solution were added thereto in an ice bath until the test compound was completely dissolved, so that a sample solution at a concentration of 2 mg/mL was obtained followed by storage at 2-8° C. for later use.
Species and strain: cynomolgus monkey Animal grade: general grade Animal source: Guangxi Xiongsen Primate Experimental Animal Breeding Development Co., Ltd. Number of the using of laboratory animal: SYXK (Su) 2019-0012
6 cynomolgus monkeys (half male and half female) were selected and randomly divided into 3 groups with 1 animal/sex in each group. The cynomolgus monkeys were administered with the test sample at a dose of 10 mg/kg by the single intravenous infusion. Blood samples were collected from each group of animals at the following time points: before administration, and 5 min, 15 min, 0.5 h, 1 h, 2 h, 4 h, 6 h, and 8 h after administration. In the test, the concentration of each test compound in the plasma of the cynomolgus monkey was detected by the LC-MS/MS method, and the lower limit of quantification of the analysis methods for the plasma samples were all 1 μg/mL. The plasma concentration data were analyzed by the non-compartmental analysis (NCA) of the analysis software for pharmacokinetic data, WinNonlin, pharmacokinetic parameters were calculated, and pharmacokinetic characteristics of the test compounds in cynomolgus monkeys after administration were investigated, with the results shown in the following table

[7] = tested on: Carbapenem-resistant Pseudomonas aeruginosa (CRPA); assay: Test Example 1: antibacterial activity test (MIC); assay type: cell-based
Protocol: (§2) The test compounds were diluted in a gradient and used for an MIC assay on the test strains. The test compounds at an initial assay concentration of 32 μg/mL were diluted in a 2-fold gradient (11 concentration points in total), and two duplicate wells were set for each concentration. Additional wells without drug dosing were set as growth controls. The minimum inhibitory concentration (MIC) assay was performed with reference to the Clinical and Laboratory Standards Institute (CLSI) guidelines.
(§3) After the frozen strains were subcultured, a single colony was picked and re-suspended in normal saline or sterile water in a tube. The bacterial suspension was vortexed and adjusted to 0.5 McF using a spectrophotometer at the wavelength of 530 nm. The bacterial solution was taken by a pipette, added to a culture medium, diluted and mixed well, and seeded to a bacterial assay plate.
(§4) The 96-well plate was affixed with a disposable sealing film, shaken and mixed well, and visually observed using a plate reader. The minimum concentration of the compounds capable of inhibiting the growth of bacteria was defined as MIC as compared to the growth controls.

[8] = tested on: Carbapenem-resistant Acinetobacter baumannii (CRAB); assay: Test Example 1: antibacterial activity test (MIC); assay type: cell-based
Protocol: as §2, §3, §4

[9] = tested on: Carbapenem-resistant Enterobacteriaceae (CRE); assay: Test Example 1: antibacterial activity test (MIC); assay type: cell-based
Protocol: as §2, §3, §4

[10] = both sexes, cynomolgus, iv, 10 mg/kg

Q: What does the source list for `CC(C)(O/N=C(\C(=O)N[C@@H]1C(=O)N2C(C(=O)[O-])=C(C[N+]3(CCNC(=O)c4ccc(O)c(O)c4Cl)CCCC3)CS[C@H]12)c1csc(N)n1)C(=O)O` [Cefiderocol, reference compound]?
A: MIC ([1]; FDA-CDC AR-BANK #0361 (TEM-1; SHV-12; KPC-2)): 2 µg/mL (≈ 2.66 µM); MIC ([1]; FDA-CDC AR-BANK #0362 (TEM-1; SHV-11; KPC-2)): 0.5 µg/mL (≈ 0.665 µM); MIC ([1]; FDA-CDC AR-BANK #0363 (TEM-1; SHV-12; KPC-2)): 0.25 µg/mL (≈ 0.332 µM); MIC ([1]; FDA-CDC AR-BANK #0438 (aph(3′)-Ia, dfrA12, KPC-3, OmpK35, oqxA, oqxB, SHV-11)): 2 µg/mL (≈ 2.66 µM); MIC ([1]; FDA-CDC AR-BANK #0453 (KPC-3, OmpK35, oqxA, oqxB, SHV-11, TEM-1B)): 1 µg/mL (≈ 1.33 µM); MIC [2]: 0.0625 µg/mL (≈ 0.0831 µM); MIC ([3]; FDA-CDC AR-BANK #0036 (strB, OXA-65, OXA-24, strA, sul2)): 0.25 µg/mL (≈ 0.332 µM); MIC ([3]; FDA-CDC AR-BANK #0052 (OXA-58, OXA-100, sul2)): 0.0625 µg/mL (≈ 0.0831 µM); MIC ([3]; FDA-CDC AR-BANK #0063 (OXA-23, OXA-65, OXA-24, sul2)): 8 µg/mL (≈ 10.6 µM); MIC ([3]; FDA-CDC AR-BANK #0070 (OXA-58, OXA-100, sul2)): 0.125 µg/mL (≈ 0.166 µM); MIC ([3]; FDA-CDC AR-BANK #0101 (strB, OXA-65, OXA-24, strA, sul2)): 1 µg/mL (≈ 1.33 µM); MIC ([4]; FDA-CDC AR-BANK #0439 (aac(6′)-Il, aadA1b, BCR1, IMP-18, OXA-50)): 0.25 µg/mL (≈ 0.332 µM); MIC ([4]; FDA-CDC AR-BANK #0441 (KPC-2)): 1 µg/mL (≈ 1.33 µM); MIC ([4]; FDA-CDC AR-BANK #0444 (aac(6′)-Il, dfrB5, OXA-4, tet(G), VIM-2)): 2 µg/mL (≈ 2.66 µM); MIC ([4]; FDA-CDC AR-BANK #0457 (aadA6, VIM-2)): 0.125 µg/mL (≈ 0.166 µM); MIC [5]: 0.0625 µg/mL (≈ 0.0831 µM); AUC(0-inf) [6, 10]: 32400 ng·h/mL; AUC(0-t) [6, 10]: 26200 ng·h/mL; clearance [6, 10]: 5.14 mL/min/kg; half-life [6, 10]: 51.6 min; Cmax ([6]; both sexes, cynomolgus, iv, 10 mg/kg, read-out: Cmax): 30500 ng/mL; MRT ([6]; both sexes, cynomolgus, iv, 10 mg/kg, read-out: MRT): 42 min; Vd ([6]; both sexes, cynomolgus, iv, 10 mg/kg, read-out: Vd): 0.381 L/kg; Tmax ([6]; both sexes): 4.8 min; AUC last ([6]; 10 mg/kg): 23940 ng·h/mL; AUCinf ([6]; 10 mg/kg): 28350 ng·h/mL; CL ([6]; 10 mg/kg): 5.8793 mL/min/kg; Cmax ([6]; 10 mg/kg): 24330 ng/mL; Vd ([6]; 10 mg/kg): 0.37963 L/kg; t1/2 ([6]; 10 mg/kg): 45 min; MIC ([7]; CRPA strain No. 100110): 0.047 µg/mL (≈ 0.0625 µM); MIC ([7]; CRPA strain No. 110163): 1 µg/mL (≈ 1.33 µM); MIC ([7]; CRPA strain No. 110224): 0.75 µg/mL (≈ 0.997 µM); MIC ([7]; CRPA strain No. 110358): 1 µg/mL (≈ 1.33 µM); MIC ([7]; CRPA strain No. 110390): 0.5 µg/mL (≈ 0.665 µM); MIC ([8]; CRAB strain No. 100085): 0.5 µg/mL (≈ 0.665 µM); MIC ([8]; CRAB strain No. 100333): 2 µg/mL (≈ 2.66 µM); MIC ([8]; CRAB strain No. 110440): 1.5 µg/mL (≈ 1.99 µM); MIC ([8]; CRAB strain No. 110477): 1 µg/mL (≈ 1.33 µM); MIC ([8]; CRAB strain No. 110517): 0.5 µg/mL (≈ 0.665 µM); MIC ([9]; CRE strain No. 100109): 1 µg/mL (≈ 1.33 µM); MIC ([9]; CRE strain No. 100186): 0.5 µg/mL (≈ 0.665 µM); MIC ([9]; CRE strain No. 110502): 12 µg/mL (≈ 16 µM); MIC ([9]; CRE strain No. 110525): 6 µg/mL (≈ 7.98 µM); MIC ([9]; CRE strain No. 311277): 5 µg/mL (≈ 6.65 µM)
